# According to patent EP4631937A1, “CRYSTALLINE FORM OR AMORPHOUS FORM OF OXOISOINDOLE-5-FORMAMIDE COMPOUND OR SALT AND SOLVATE THEREOF” (Hangzhou Glubio Pharmaceutical Co., Ltd., priority 2022, dated 2024):
# What was measured:
# [1] = Pharmacokinetic evaluation in mice by gavage; format: in vivo; design: AUClast /D: unit not given here; conditions: CD1 male mice, oral, 30 mg/kg
# Experimental: CD1 male mice were selected and the test compound was administered orally. The drug concentration in plasma at different time points was quantitatively determined by LC/MS/MS to evaluate the pharmacokinetic characteristics of the test drug in mice.
# Experimental materials: CD1 Mouse (male, 20-30 g, 6-8 weeks old, Zhejiang Weitong Lihua).
# Blood was collected from the dorsal plantar vein at 0.25 h, 0.5 h, 1 h, 2 h, 4 h, 6 h, 8 h and 24 h after administration, placed in an anticoagulant tube containing EDTA-K2 and mixed, and centrifuged at 4°C and 4000 g for 5 minutes. The drug concentration in blood was determined by LC-MS/MS, and the relevant pharmacokinetic parameters were calculated by the non-compartmental linear/log trapezoidal method using Phoenix WinNonlin 6.3 pharmacokinetic software.
# [2] = Stability test of crystalline forms (open container at 25°C/92% RH and 40°C/75% RH, sealed container at 60°C, 13 days; XRPD, HPLC, colour); format: physicochemical; conditions: for Initial purity (HPLC/SFC) Chemical purity / Initial purity (HPLC/SFC) Chiral purity: before storage
# Experimental: Placed in a open container at 25°C/92% RH and 40°C/75% RH for 13 days, respectively, or in a sealed container at 60°C for 13 days. […]
# (§1) Placed in a open container at 25 °C/92% RH and 40 °C/75% RH for 13 days, respectively, or in a sealed container at 60 °C for 13 days. […]
# as §1
# [3] = as above; format: physicochemical; conditions: for Color / Solid (XRPD) / Chiral purity / Chemical purity: Solid; for Chiral purity / Chemical purity: HPLC/SFC
# [4] = Hygroscopicity test by DVS, with XRPD after DVS; format: physicochemical; conditions: for 2nd adsorption weight change percentage / 2nd desorption weight change percentage / 1st adsorption weight change percentage / 1st desorption weight change percentage / XRPD after DVS test / moisture adsorbed (DVS): 25 °C; for XRPD after DVS test: after 40-0-95-0-40% RH
# Experimental: • DVS Intrinsic Dynamic Vapor Sorption Instrument • Gas flow rate 200 sccm, furnace temperature 25 °C.
# (§2) The hygroscopicity and dehydration behavior of crystalline form B was investigated by DVS. Humidity program: 25 °C, 40-0-95-0-40% RH, dm/dt 0.002, shortest equilibrium time was 60 min, and longest equilibrium time was 360 min. XRPD was also performed on the samples after DVS test to determine whether the crystal transformation occurred.
# as §2, with “E” for “B”
# as §2, with “G” for “B”
# [5] = mouse, plasma, 25 mM citrate buffer (pH 3) containing 5% Tween 80
# [6] = Solid, 40 °C/75% RH, open container, 13 days
# [7] = 25 °C/92% RH, open container, 13 days
# [8] = 40 °C/75% RH, open container, 13 days
# [9] = 60 °C, sealed container, 13 days
# [10] = relative humidity 0%, listed as Crystalline form B
# [11] = relative humidity 10%, listed as Crystalline form B
# [12] = relative humidity 20%, listed as Crystalline form B
# [13] = relative humidity 30%, listed as Crystalline form B
# [14] = relative humidity 40%, listed as Crystalline form B
# [15] = relative humidity 50%, listed as Crystalline form B
# [16] = relative humidity 60%, listed as Crystalline form B
# [17] = relative humidity 70%, listed as Crystalline form B
# [18] = relative humidity 80%, listed as Crystalline form B
# [19] = relative humidity 90%, listed as Crystalline form B
# [20] = relative humidity 95%, listed as Crystalline form B
# [21] = 25 °C/92% RH, open container, 1 week, listed as Crystalline form E
# [22] = 40 °C/75% RH, open container, 1 week, listed as Crystalline form E
# [23] = 60 °C, sealed container, 1 week, listed as Crystalline form E
# [24] = relative humidity 0%, listed as Crystalline form E
# [25] = relative humidity 10%, listed as Crystalline form E
# [26] = relative humidity 20%, listed as Crystalline form E
# [27] = relative humidity 30%, listed as Crystalline form E
# [28] = relative humidity 40%, listed as Crystalline form E
# [29] = relative humidity 50%, listed as Crystalline form E
# [30] = relative humidity 60%, listed as Crystalline form E
# [31] = relative humidity 70%, listed as Crystalline form E
# [32] = relative humidity 80%, listed as Crystalline form E
# [33] = relative humidity 90%, listed as Crystalline form E
# [34] = relative humidity 95%, listed as Crystalline form E
smiles,measurement,setting,value
O=C1CC[C@H](N2Cc3cc(C(=O)N[C@H](c4ccc(Cl)cn4)C4CCC4)ccc3C2=O)C(=O)N1 [Amorphous],AUClast /D,"[1]; 25 mM citrate buffer (pH 3) containing 5% Tween 80, dose-normalised",1178 ± 116
same,AUC(0-inf),[1]; [5],35900 ± 3760 ng·h/mL
same,AUC(0-t),[1]; [5],35300 ± 3480 ng·h/mL
same,Cmax,[1]; [5],17800 ± 3130 ng/mL
same,Tmax,[1]; [5],0.42 h
same,half-life,[1]; [5],3.1 h
"O=C1CC[C@H](N2Cc3cc(C(=O)N[C@H](c4ccc(Cl)cn4)C4CCC4)ccc3C2=O)C(=O)N1 [crystalline form B, N-((S)-(5-chloropyridin-2-yl)(cyclobutyl)methyl)-2-((S)-2,6-dioxopiperidin-3-yl)-1-oxoisoindoline-5-carboxamide]",Chemical purity,"[2]; Solid, 25 °C/92% RH, open container, 13 days, HPLC/SFC",99.2% See Figure 15c
same,Color,[2]; [6],No color change
same,Solid (XRPD),[2]; [6],"The crystal form did not change, see Figure 15e"
same,Initial purity (HPLC/SFC) Chemical purity,[2]; listed as Crystalline form B,99.5% See Figure 15a
same,Initial purity (HPLC/SFC) Chiral purity,[2]; listed as Crystalline form B,99.0% See Figure 15b
same,Color,[3]; [7],No color change
same,Solid (XRPD),[3]; [7],"The crystal form did not change, see Figure 15e"
same,Chiral purity,[3]; [7],98.8% See Figure 15d
same,Chemical purity,[3]; [8],97.9% See Figure 15f
same,Chiral purity,[3]; [8],98.8% See Figure 15g
same,Color,[3]; [9],No color change
same,Solid (XRPD),[3]; [9],"The crystal form did not change, see Figure 15e"
same,Chemical purity,[3]; [9],97.8% See Figure 15h
same,Chiral purity,[3]; [9],98.9% See Figure 15i
same,stability (crystal form),"[3]; stability tests of Table 14, Table 15 and Table 16, 25°C/92% RH, 40°C/75% RH, 60°C, 13 days",the crystal form did not change
same,2nd adsorption weight change percentage,[4]; relative humidity 0%,0.0%
same,2nd desorption weight change percentage,[4]; relative humidity 0%,0.0%
same,1st adsorption weight change percentage,[4]; [10],1.6%
same,1st desorption weight change percentage,[4]; [10],1.6%
same,1st adsorption weight change percentage,[4]; [11],2.0%
same,1st desorption weight change percentage,[4]; [11],2.0%
same,2nd adsorption weight change percentage,[4]; [11],0.4%
same,2nd desorption weight change percentage,[4]; [11],0.4%
same,1st adsorption weight change percentage,[4]; [12],2.7%
same,1st desorption weight change percentage,[4]; [12],2.7%
same,2nd adsorption weight change percentage,[4]; [12],1.1%
same,2nd desorption weight change percentage,[4]; [12],1.1%
same,1st adsorption weight change percentage,[4]; [13],3.2%
same,1st desorption weight change percentage,[4]; [13],3.3%
same,2nd adsorption weight change percentage,[4]; [13],1.7%
same,2nd desorption weight change percentage,[4]; [13],1.7%
same,1st adsorption weight change percentage,[4]; [14],3.7%
same,1st desorption weight change percentage,[4]; [14],3.8%
same,2nd adsorption weight change percentage,[4]; [14],2.2%
same,2nd desorption weight change percentage,[4]; [14],2.3%
same,1st adsorption weight change percentage,[4]; [15],4.5%
same,2nd desorption weight change percentage,[4]; [15],3.3%
same,1st adsorption weight change percentage,[4]; [16],5.0%
same,2nd desorption weight change percentage,[4]; [16],3.9%
same,1st adsorption weight change percentage,[4]; [17],5.4%
same,2nd desorption weight change percentage,[4]; [17],5.4%
same,1st adsorption weight change percentage,[4]; [18],5.9%
same,2nd desorption weight change percentage,[4]; [18],5.9%
same,1st adsorption weight change percentage,[4]; [19],6.9%
same,2nd desorption weight change percentage,[4]; [19],7.3%
same,1st adsorption weight change percentage,[4]; [20],9.2%
same,2nd desorption weight change percentage,[4]; [20],9.2%
same,XRPD after DVS test,[4]; listed as Crystalline form B,"The crystal form did not change, see Figure 18b"
same,stability (crystal form),"[4]; hygroscopic tests of Table 17, Table 18 and Table 19, DVS 25 °C, 40-0-95-0-40% RH",the crystal form did not change
same,moisture adsorbed (DVS),[4]; under 40%RH-80%RH,2.2%
same,moisture adsorbed (DVS),"[4]; under 40%RH-95%RH, listed as Crystalline form B",5.5%
"O=C1CC[C@H](N2Cc3cc(C(=O)N[C@H](c4ccc(Cl)cn4)C4CCC4)ccc3C2=O)C(=O)N1 [crystalline form E, N-((S)-(5-chloropyridin-2-yl)(cyclobutyl)methyl)-2-((S)-2,6-dioxopiperidin-3-yl)-1-oxoisoindoline-5-carboxamide]",Initial purity (HPLC/SFC) Chemical purity,[2]; listed as Crystalline form E,99.3% See Figure 16a
same,Initial purity (HPLC/SFC) Chiral purity,[2]; listed as Crystalline form E,98.7% See Figure 16b
same,Color,"[3]; 25 °C/92% RH, open container, 1 week",No color change
same,Chemical purity,[3]; [21],98.3% See Figure 16c
same,Chiral purity,[3]; [21],98.6% See Figure 16d
same,Solid (XRPD),[3]; [21],"The crystal form did not change, see Figure 16e"
same,Color,"[3]; 40 °C/75% RH, open container, 1 week",No color change
same,Chemical purity,[3]; [22],98.6% See Figure 16f
same,Chiral purity,[3]; [22],98.6% See Figure 16g
same,Solid (XRPD),[3]; [22],"The crystal form did not change, see Figure 16e"
same,Color,"[3]; 60 °C, sealed container, 1 week",No color change
same,Chemical purity,[3]; [23],98.8% See Figure 16h
same,Chiral purity,[3]; [23],98.7% See Figure 16i
same,Solid (XRPD),[3]; [23],"The crystal form did not change, see Figure 16e"
same,1st adsorption weight change percentage,[4]; [24],0.1%
same,1st desorption weight change percentage,[4]; [24],0.1%
same,1st adsorption weight change percentage,[4]; [25],0.3%
same,1st desorption weight change percentage,[4]; [25],0.3%
same,2nd adsorption weight change percentage,[4]; [25],0.3%
same,2nd desorption weight change percentage,[4]; [25],0.3%
same,1st adsorption weight change percentage,[4]; [26],1.3%
same,1st desorption weight change percentage,[4]; [26],1.3%
same,2nd adsorption weight change percentage,[4]; [26],1.3%
same,2nd desorption weight change percentage,[4]; [26],1.3%
same,1st adsorption weight change percentage,[4]; [27],1.6%
same,1st desorption weight change percentage,[4]; [27],1.6%
same,2nd adsorption weight change percentage,[4]; [27],1.6%
same,2nd desorption weight change percentage,[4]; [27],1.6%
same,1st adsorption weight change percentage,[4]; [28],2.0%
same,1st desorption weight change percentage,[4]; [28],2.0%
same,2nd adsorption weight change percentage,[4]; [28],2.0%
same,2nd desorption weight change percentage,[4]; [28],2.0%
same,1st adsorption weight change percentage,[4]; [29],2.7%
same,2nd desorption weight change percentage,[4]; [29],2.8%
same,1st adsorption weight change percentage,[4]; [30],3.1%
same,2nd desorption weight change percentage,[4]; [30],3.3%
same,1st adsorption weight change percentage,[4]; [31],3.5%
same,2nd desorption weight change percentage,[4]; [31],3.5%
same,1st adsorption weight change percentage,[4]; [32],3.6%
same,2nd desorption weight change percentage,[4]; [32],3.6%
same,1st adsorption weight change percentage,[4]; [33],3.8%
same,2nd desorption weight change percentage,[4]; [33],3.8%
same,1st adsorption weight change percentage,[4]; [34],4.0%
same,2nd desorption weight change percentage,[4]; [34],4.0%
same,XRPD after DVS test,[4]; listed as Crystalline form E,"The crystal form did not change, see Figure 19b"
same,moisture adsorbed (DVS),"[4]; under 40%RH-95%RH, listed as Crystalline form E","2.0% of moisture was adsorbed under 40%RH-95%RH, see Figure 19a"
